Laboratory results published in patent US20250009734A1, “METHODS OF INHIBITING FOXO1 FOR TREATMENT OF LYMPHATIC DISORDERS” (UNIVERSITY OF SOUTH FLORIDA, priority 2023, published 2025).

Legend:
[1] = tested on: human dermal lymphatic endothelial cells (hdLECs); experiment: qRT-PCR of valve and flow responsive gene mRNA in cultured hdLECs; assay type: cell-based
Procedure: FIG. 1. AS1842856 (AS) has a time and concentration dependent effect on valve genes expression. Human dermal lymphatic endothelial cells (hdLECs) were cultured under static conditions and treated for the indicated time (24, 48, and 72 hours) and concentrations from left to right: DMSO 1 μM, AS 0.1 μM, AS 0.5 μM, and AS 1 μM. Afterwards, mRNA of indicated genes was extracted, reverse transcribe and quantified by qRT-PCR analysis. All values are mean±SEM. n=3 experiment repeats; ns=not significant; *p≤0.05, **p≤0.01.
To investigate this, hdLECs were treated with three distinct concentrations of AS1842856-0.1 μM, 0.5 μM, and 1 μM for 24 hours (hrs), 48 hrs, and 72 hrs. DMSO was used as the vehicle control. The medium was changed every day with freshly made drug. Thereafter, the expression levels of valve genes and flow responsive genes, including FOXC2, GATA2, PROX1, KLF4, ITGA9, GJA4, NOS3, and CTNNB1, were determined using quantitative RT-qPCR. […] Deletion of any of these three genes leads to the absence of lymphatic valve formation during embryonic development (Petrova et al., 2004, Kazenwadel et al., 2015, Cha et al., 2016). […] However, the expression of CTNNB1 was not altered.
Human dermal lymphatic endothelial cells (hdLECs) purchased from Promocell (C-12216) were cultured in EBM-V2 (PromoCell, C-22121) media on fibronectin (20 μl/well) coated 6-well plates. hdLECs were treated with 4 different conditions: DMSO (1 μM), AS1842856 (EMD Millipore Corporation) 0.1 μM, 0.5 μM and 1 μM for 3 different time points: 24, 48, and 72 hours for qRT-PCR. For western blot, hdLECs were treated with 0.5 μM AS1842856 for 48 hours.
The RNeasy Plus Mini Kit (Qiagen) was used to isolate total RNA from hdLECs per the manufacturers' instructions. cDNA synthesis was performed using the AdvantageR RT-for-PCR kit (Takara) according to the manufacturer's guidelines. qPCR was performed in a QuantStudio 6 realtime PCR system (Applied Biosystems) with TaqmanR probes (Applied Biosystems, Thermofisher) and the Cq value of each gene was normalized to the that of GAPDH.

[2] = tested on: human dermal lymphatic endothelial cells (hdLECs); experiment: Immunostaining of PROX1 and β-catenin localization in cultured hdLECs; assay type: cell-based; details: 0.5 μM AS for 48 hours, DMSO control: almost exclusively on the cell membrane
Procedure: FIGS. 2A-2F. AS1842856 elevates protein expression of valve genes and promotes b-catenin nuclear localization in cultured hdLECs. (A) hdLECs were cultured under static condition and treated for 48 hours with 0.5 μM DMSO (vehicle control) or 0.5 μM AS treatment. Thereafter, proteins were extracted, and western blot perform for the indicated proteins. ACTB is the loading control. (B) Quantification results of indicated proteins in western blot from three independent experiments. (C-F) Immunostaining of cultured hdLECs for PROX1 and CTNNB1 protein. All values are mean±SEM. n=3 experiment repeats; ns=not significant; *p≤0.05, **p≤0.01, ***p≤0.001. Vehicle control: 0.5 μM DMSO for 48 hours treatment. AS1842856: 0.5 μM AS1842856 for 48 hours treatment. Cells were stained for PROX1 (green) and CTNNB1 (purple). (E) and (F) are the merged images for PROX1 and CTNNB1. Scale bar is 50 μm.
In cells, phosphorylated β-catenin is degraded in a destruction complex in the cytoplasm, but unphosphorylated β-catenin upon activation is translocated to the nucleus from the cytoplasm (Harada et al., 1999). It has been reported that β-catenin in the nucleus of LECs promotes the expression of valve-forming genes FOXC2 and PROX1 by binding to the promoter areas of these two genes (Cha et al., 2016). […]

FOXO3 = FOXO3 (Homo sapiens, UniProt O43524); details: Nagashima et al., 2010; cited from earlier work
FOXO4 = FOXO4 (Homo sapiens, UniProt P98177); details: Nagashima et al., 2010; cited from earlier work
FOXO4, sequence (P98177 whole entry, species assumed): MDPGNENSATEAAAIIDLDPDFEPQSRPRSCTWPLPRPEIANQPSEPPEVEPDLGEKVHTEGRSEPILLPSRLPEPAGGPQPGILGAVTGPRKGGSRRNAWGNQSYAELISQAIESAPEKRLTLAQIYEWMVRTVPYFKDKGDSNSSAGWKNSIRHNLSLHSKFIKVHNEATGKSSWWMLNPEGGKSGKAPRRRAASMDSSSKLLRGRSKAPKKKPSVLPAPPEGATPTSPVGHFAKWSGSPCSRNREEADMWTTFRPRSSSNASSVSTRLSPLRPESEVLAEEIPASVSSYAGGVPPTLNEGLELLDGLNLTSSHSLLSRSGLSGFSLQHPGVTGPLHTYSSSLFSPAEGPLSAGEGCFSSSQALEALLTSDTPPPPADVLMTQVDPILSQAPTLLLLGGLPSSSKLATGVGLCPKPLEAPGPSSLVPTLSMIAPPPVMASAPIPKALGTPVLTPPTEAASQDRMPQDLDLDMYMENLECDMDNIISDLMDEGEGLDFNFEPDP

FOXO3, sequence (O43524 whole entry, species assumed): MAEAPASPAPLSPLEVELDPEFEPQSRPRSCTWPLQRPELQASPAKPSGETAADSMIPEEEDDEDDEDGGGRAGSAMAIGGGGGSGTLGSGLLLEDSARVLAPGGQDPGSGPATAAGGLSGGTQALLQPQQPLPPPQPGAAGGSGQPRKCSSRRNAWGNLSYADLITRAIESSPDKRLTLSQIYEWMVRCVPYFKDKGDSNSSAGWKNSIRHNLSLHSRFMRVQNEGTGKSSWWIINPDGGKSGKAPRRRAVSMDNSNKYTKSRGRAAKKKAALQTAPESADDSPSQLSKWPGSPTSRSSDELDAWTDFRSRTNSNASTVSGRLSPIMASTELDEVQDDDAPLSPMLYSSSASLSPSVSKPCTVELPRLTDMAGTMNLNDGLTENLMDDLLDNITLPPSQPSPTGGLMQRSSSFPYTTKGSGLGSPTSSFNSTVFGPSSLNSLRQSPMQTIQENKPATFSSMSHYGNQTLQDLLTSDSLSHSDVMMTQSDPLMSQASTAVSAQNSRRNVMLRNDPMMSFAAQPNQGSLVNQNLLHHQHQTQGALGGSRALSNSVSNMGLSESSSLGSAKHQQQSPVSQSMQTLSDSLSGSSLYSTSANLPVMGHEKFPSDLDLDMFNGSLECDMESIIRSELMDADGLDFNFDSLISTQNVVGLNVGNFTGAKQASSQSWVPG

## CCn1cc(C(=O)O)c(=O)c2c(N)c(F)c(NC3CCCCC3)cc21 [AS1842856]
[1]; 0.5 μM for 48 hrs
  increased expression of FOXC2, GATA2, KLF4, ITGA9, GJA4, NOS3, and PROX1 (comparison of treatment conditions): best results
[1]; 24 hrs or 72 hrs AS treatment vs DMSO
  GATA2 mRNA expression level: not with 24 hrs or 72 hrs treatment
[1]; 48 hrs AS treatment vs DMSO
  CTNNB1 mRNA expression: not altered
  FOXC2 mRNA expression level: significantly upregulated
  GATA2 mRNA expression level: significantly upregulated
  GJA4 mRNA expression level: significantly higher
  ITGA9 mRNA expression level: significantly higher
  KLF4 mRNA expression level: significantly increased
  NOS3 mRNA expression: significantly increased
  PROX1 mRNA expression level: significantly increased
[1]; 48 hrs, 0.1 μM
  FOXC2 mRNA expression level: trend of increase
  GATA2 mRNA expression level: trend of increase
[1]; 48 hrs, 0.1 μM and 0.5 μM
  GJA4 mRNA expression level: upregulated
  ITGA9 mRNA expression level: upregulated
  NOS3 mRNA expression level: upregulated
  PROX1 mRNA expression level: upregulated
[1]; 48 hrs, 0.5 μM and 1 μM
  FOXC2 mRNA expression: significant increase
  GATA2 mRNA expression: significant increase
[1]; 48 hrs, 1 μM
  GJA4 mRNA expression level: not under 1 μM
  ITGA9 mRNA expression level: not under 1 μM
  NOS3 mRNA expression level: not under 1 μM
  PROX1 mRNA expression level: not under 1 μM
[1]; 48 hrs, 0.1, 0.5 and 1 μM
  CTNNB1 mRNA expression: None of the concentrations induced significant upregulation
  FOXO1 mRNA expression: None of the concentrations induced significant upregulation
[1]; 48 hrs, all three concentrations (0.1, 0.5, 1 μM)
  KLF4 mRNA expression: increased
[1]; AS treatment vs DMSO
  FOXO1 mRNA expression level: not altered
[2]
  localization of β-catenin (immunostaining): a remarkable amount of β-catenin was in the nucleus
FOXO3
  effect on inhibiting the activity of FOXO3: minimal effect
FOXO4
  effect on inhibiting the activity of FOXO4: minimal effect
